Measured values: patent US8609858B2, “Spiro derivatives of parthenin as novel anticancer agents” (Council of Scientific & Industrial Research, priority 2008, dated 2013)

Legend:
PC-3 = test: In vitro cytotoxicity screening (sulphodamine B dye), PC-3; format: cell-based; conditions: Homo sapiens; PC-3 prostate cancer cell line
Procedure: (§1) Cells at sub confluent stage were harvested from the flask by treatment with trypsin (0.5% in PBS containing 0.02% EDTA) for determination of cytotoxicity. […] The cell suspensions of required cell density were prepared in complete growth medium with gentamycin (50 μg/ml) for determination of cytotoxicity. The cells (100 μl/well) were inoculated in 96 well tissue culture plates. The cells were allowed to grow for 24 hrs temperature of 37° C. and in a humidified atmosphere of 5% CO2 in air. Stock solution of (20 mM) of test material was prepared in DMSO. The stock solution was serially diluted with complete growth medium containing 50 μg/ml of gentamycin to obtain […] working test solutions of 1., 2, 5, 10, 50 and 100 μM.
(§2) The media were supplemented with FCS (10%), penicillin (100 Units/ml), streptomycin (100 μg/ml) and glutamine (2 mM) and cells were grown in CO2 incubator (Hera cell, Heraeus, USA) at 37° C. with 90% humidity and 5% CO2.

DU-145 = test: In vitro cytotoxicity screening (sulphodamine B dye), DU-145; format: cell-based; conditions: Homo sapiens; DU-145 prostate cancer cell line
Procedure: as §1, §2

SW-620 = test: In vitro cytotoxicity screening (sulphodamine B dye), SW-620; format: cell-based; conditions: Homo sapiens; SW-620 colon cancer cell line
Procedure: as §1, §2

## COc1ccc(N2CC23C(=O)O[C@@H]2[C@H]3CC[C@H](C)[C@]3(O)C=CC(=O)[C@@]23C)cc1 (some centres unmarked)
other
  melting point: 245 to 247 °C

## Cc1ccc(N2CC23C(=O)O[C@@H]2[C@H]3CC[C@H](C)[C@]3(O)C=CC(=O)[C@@]23C)cc1 (some centres unmarked)
other
  melting point: 241 to 242 °C

## COc1ccc(C2=NOC3(C2)C(=O)O[C@@H]2[C@H]3CC[C@H](C)[C@]3(O)C=CC(=O)[C@@]23C)cc1 (some centres unmarked) [Compound -1]
PC-3
  IC50: 35 µM
DU-145
  IC50: 20 µM
SW-620
  IC50: 41 µM

## C[C@H]1CC[C@@H]2[C@@H](OC(=O)C23CC(c2ccc(Cl)cc2)=NO3)[C@]2(C)C(=O)C=C[C@@]12O (some centres unmarked) [Compound -2]
PC-3
  IC50: 49 µM
DU-145
  IC50: 43 µM
other
  melting point: 138.2 °C
SW-620
  IC50: 51 µM

## C[C@H]1CC[C@@H]2[C@@H](OC(=O)C23CC(c2ccc(N(C)C)cc2)=NO3)[C@]2(C)C(=O)C=C[C@@]12O (some centres unmarked) [Compound -4]
PC-3
  IC50: 6.33 µM

## C[C@H]1CC[C@@H]2[C@@H](OC(=O)C23CC(c2ccc(O)cc2)=NO3)[C@]2(C)C(=O)C=C[C@@]12O (some centres unmarked) [Compound -5]
DU-145
  IC50: 93 µM
other
  melting point: 129.2 °C
SW-620
  IC50: 89 µM

## C[C@H]1CC[C@@H]2[C@@H](OC(=O)C23CC(c2cccc([N+](=O)[O-])c2)=NO3)[C@]2(C)C(=O)C=C[C@@]12O (some centres unmarked) [Compound -11]
PC-3
  IC50: 55 µM
DU-145
  IC50: 51 µM
SW-620
  IC50: 49 µM

## C[C@H]1CC[C@@H]2[C@@H](OC(=O)C23CC(c2cccs2)=NO3)[C@]2(C)C(=O)C=C[C@@]12O (some centres unmarked) [Compound -12]
PC-3
  IC50: 29 µM
DU-145
  IC50: 19 µM
SW-620
  IC50: 34 µM

## Cc1ccccc1C1=NOC2(C1)C(=O)O[C@@H]1[C@H]2CC[C@H](C)[C@]2(O)C=CC(=O)[C@@]12C (some centres unmarked) [Compound -13]
PC-3
  IC50: 10 µM
DU-145
  IC50: 12 µM
other
  melting point: 277 °C
SW-620
  IC50: 5 µM

## Cc1cccc(C2=NOC3(C2)C(=O)OC2C3CC[C@H](C)[C@]3(O)C=CC(=O)[C@@]23C)c1 (some centres unmarked) [Compound -14]
PC-3
  IC50: 66.6 µM

## C[C@H]1CC[C@@H]2[C@@H](OC(=O)C23CC(c2ccc(F)cc2)=NO3)[C@]2(C)C(=O)C=C[C@@]12O (some centres unmarked) [Compound -15]
PC-3
  IC50: 27 µM
DU-145
  IC50: 13 µM
other
  melting point: 193 °C
SW-620
  IC50: 3.6 µM

## C[C@H]1CC[C@@H]2[C@@H](OC(=O)C23CC(c2ccc(C#N)cc2)=NO3)[C@]2(C)C(=O)C=C[C@@]12O (some centres unmarked) [Compound -16]
PC-3
  IC50: 32 µM
DU-145
  IC50: 26 µM
other
  melting point: 147 °C
SW-620
  IC50: 53 µM

## C[C@H]1CC[C@@H]2[C@@H](OC(=O)C23CC(c2ccc(Cl)cc2)N(c2ccccc2)O3)[C@]2(C)C(=O)C=C[C@@]12O (some centres unmarked) [Compound -18]
PC-3
  IC50: 7.8 µM
DU-145
  IC50: 7 µM
other
  melting point: 183 °C
SW-620
  IC50: 7.5 µM

## Cc1ccccc1C1CC2(ON1c1ccccc1)C(=O)O[C@@H]1[C@H]2CC[C@H](C)[C@]2(O)C=CC(=O)[C@@]12C (some centres unmarked) [Compound -19]
PC-3
  IC50: 6.4 µM
DU-145
  IC50: 5.6 µM
other
  melting point: 181 °C
SW-620
  IC50: 6 µM

## C[C@H]1CC[C@@H]2[C@@H](OC(=O)C23CC(c2ccc(Br)cc2)N(c2ccccc2)O3)[C@]2(C)C(=O)C=C[C@@]12O (some centres unmarked) [Compound -20]
PC-3
  IC50: 5.8 µM
DU-145
  IC50: 6.3 µM
other
  melting point: 185 °C
SW-620
  IC50: 6.7 µM

## Cc1ccc(C2CC3(ON2c2ccccc2)C(=O)O[C@@H]2[C@H]3CC[C@H](C)[C@]3(O)C=CC(=O)[C@@]23C)cc1 (some centres unmarked) [Compound -21]
PC-3
  IC50: 8.5 µM
DU-145
  IC50: 8.1 µM
other
  melting point: 114 °C
SW-620
  IC50: 8.7 µM

## C[C@H]1CC[C@@H]2[C@@H](OC(=O)C23CC(c2ccccc2)N(c2ccccc2)O3)[C@]2(C)C(=O)C=C[C@@]12O (some centres unmarked) [Compound -23]
PC-3
  IC50: 5.7 µM
DU-145
  IC50: 5.6 µM
other
  melting point: 170 °C
SW-620
  IC50: 5.8 µM

## C[C@H]1CC[C@@H]2[C@@H](OC(=O)C23CC(c2ccc(F)cc2)N(c2ccccc2)O3)[C@]2(C)C(=O)C=C[C@@]12O (some centres unmarked) [Compound -24]
PC-3
  IC50: 5.7 µM
DU-145
  IC50: 6.4 µM
other
  melting point: 154 °C
SW-620
  IC50: 7.3 µM

## COc1ccc(C2CC3(ON2c2ccccc2)C(=O)O[C@@H]2[C@H]3CC[C@H](C)[C@]3(O)C=CC(=O)[C@@]23C)cc1Br (some centres unmarked) [Compound -25]
PC-3
  IC50: 5.7 µM
DU-145
  IC50: 6.3 µM
other
  melting point: 96 °C
SW-620
  IC50: 6.8 µM

## C[C@H]1CC[C@@H]2[C@@H](OC(=O)C23CC(c2ccc(C#N)cc2)N(c2ccccc2)O3)[C@]2(C)C(=O)C=C[C@@]12O (some centres unmarked) [Compound -26]
PC-3
  IC50: 4.8 µM
DU-145
  IC50: 5 µM
other
  melting point: 116 °C
SW-620
  IC50: 4.8 µM

## COc1ccc(Br)cc1C1CC2(ON1c1ccccc1)C(=O)O[C@@H]1[C@H]2CC[C@H](C)[C@]2(O)C=CC(=O)[C@@]12C (some centres unmarked) [Compound -27]
PC-3
  IC50: 8.2 µM
DU-145
  IC50: 7.8 µM
other
  melting point: 197 °C
SW-620
  IC50: 6.1 µM

## COc1ccc(C2CC3(ON2c2ccccc2)C(=O)O[C@@H]2[C@H]3CC[C@H](C)[C@]3(O)C=CC(=O)[C@@]23C)c(OC)c1 (some centres unmarked) [Compound -28]
PC-3
  IC50: 11 µM
DU-145
  IC50: 11 µM
other
  melting point: 99 °C
SW-620
  IC50: 7.5 µM

## COc1cc(C2CC3(ON2c2ccccc2)C(=O)O[C@@H]2[C@H]3CC[C@H](C)[C@]3(O)C=CC(=O)[C@@]23C)cc(OC)c1OC (some centres unmarked) [Compound -29]
PC-3
  IC50: 8.6 µM
DU-145
  IC50: 5.6 µM
other
  melting point: 119 °C
SW-620
  IC50: 5.7 µM

## Cc1cc(C2CC3(ON2c2ccccc2)C(=O)O[C@@H]2[C@H]3CC[C@H](C)[C@]3(O)C=CC(=O)[C@@]23C)cc(C)c1O (some centres unmarked) [Compound -30]
other
  melting point: 108 °C

## C[C@H]1CC[C@@H]2[C@@H](OC(=O)C23CC(c2cccc(Cl)c2)N(c2ccccc2)O3)[C@]2(C)C(=O)C=C[C@@]12O (some centres unmarked) [Compound -31]
PC-3
  IC50: 8.2 µM
DU-145
  IC50: 7.4 µM
other
  melting point: 180 °C
SW-620
  IC50: 6.1 µM

## C[C@H]1CC[C@@H]2[C@@H](OC(=O)C23CC(c2ccccc2[N+](=O)[O-])C(c2ccccc2)O3)[C@]2(C)C(=O)C=C[C@@]12O (some centres unmarked) [Compound -32]
PC-3
  IC50: 8.4 µM
DU-145
  IC50: 28 µM
other
  melting point: 158 °C
SW-620
  IC50: 13 µM

## COc1ccccc1C1CC2(ON1c1ccccc1)C(=O)O[C@@H]1[C@H]2CC[C@H](C)[C@]2(O)C=CC(=O)[C@@]12C (some centres unmarked) [Compound -33]
PC-3
  IC50: 81 µM
DU-145
  IC50: 91 µM
other
  melting point: 111 °C
SW-620
  IC50: 53 µM

## C[C@H]1CC[C@@H]2[C@@H](OC(=O)C23CN3c2ccccc2)[C@]2(C)C(=O)C=C[C@@]12O (some centres unmarked) [Compound -34]
PC-3
  IC50: 10.6 µM
DU-145
  IC50: 31.4 µM
other
  melting point: 245 to 247 °C
SW-620
  IC50: 87.7 µM

## C[C@H]1CC[C@@H]2[C@@H](OC(=O)C23CN3c2cccc(Cl)c2)[C@]2(C)C(=O)C=C[C@@]12O (some centres unmarked) [Compound -35]
PC-3
  IC50: 86.1 µM
DU-145
  IC50: 39.5 µM
SW-620
  IC50: 48.4 µM

## COc1ccccc1N1CC12C(=O)O[C@@H]1[C@H]2CC[C@H](C)[C@]2(O)C=CC(=O)[C@@]12C (some centres unmarked) [Compound -37]
PC-3
  IC50: 52 µM
SW-620
  IC50: 47.3 µM

## Cc1cccc(N2CC23C(=O)O[C@@H]2[C@H]3CC[C@H](C)[C@@]3(O)C=CC(=O)[C@@]23C)c1 (some centres unmarked) [Compound -38]
PC-3
  IC50: 61.5 µM
DU-145
  IC50: 62.5 µM
SW-620
  IC50: 15 µM

## C[C@H]1CC[C@@H]2[C@@H](OC(=O)C23CN3c2ccccc2[N+](=O)[O-])[C@]2(C)C(=O)C=C[C@]12O (some centres unmarked) [Compound -39]
PC-3
  IC50: 10 µM
DU-145
  IC50: 28 µM
other
  melting point: 222 to 224 °C
SW-620
  IC50: 33 µM

## C[C@H]1CC[C@@H]2[C@@H](OC(=O)C23CN3c2cccc([N+](=O)[O-])c2)[C@]2(C)C(=O)C=C[C@@]12O (some centres unmarked) [Compound -40]
PC-3
  IC50: 10.1 µM
other
  melting point: 241 to 242 °C
SW-620
  IC50: 61 µM

## Cc1ccccc1N1CC12C(=O)O[C@@H]1[C@H]2CC[C@H](C)[C@]2(O)C=CC(=O)[C@@]12C (some centres unmarked) [Compound -43]
PC-3
  IC50: 12.5 µM
SW-620
  IC50: 22 µM

## COc1ccc(C2=NOC3(C2)C(=O)O[C@@H]2[C@H]3CC[C@H](C)[C@]3(O)C=CC(=O)[C@@]23C)cc1OC (some centres unmarked) [Compound -80]
DU-145
  IC50: 84 µM
other
  melting point: 151 °C
SW-620
  IC50: 86 µM
